Source: PMC5729109 (Journal of the American Chemical Society, 2017)
Values joined by “and” are separate entries in the source; they are usually repeats but may differ in a detail not shown here. Equal values may be shown once. Marks after values point to notes of the source that are not given here. *1 amine or outer side, *2 acyl side, *3 side chain or, on linkers, in order; H or OH if unused. Where a SMILES comes first, the peptide text is derived from it. Bridges are numbered along the chain shown (N, C = ends). [ ]: non-standard residue; d: D form. Adda = CO[C@@H](Cc1ccccc1)[C@@H](C)/C=C(C)/C=C/[C@H](N[*:1])[C@H](C)C(=O)[*:2]; dAsp(3S-Me) = C[C@H](C(=O)[*:3])[C@@H](N[*:1])C(=O)[*:2]; d(γGlu) = O=C(O)[C@@H](CCC(=O)[*:2])N[*:1]; NMeDha = C=C(NC)C(=O)O

How the values were obtained:
[1] = molecular target: PP1 Cys127Ser mutant (C127SPP1) (Homo sapiens, UniProt P62136, C127S); type: biochemical
[2] = tested on: PP1, PP2A, PP4 and PP5; conditions: cited from earlier work
[3] = molecular target: PP1 (Cys127) (Homo sapiens, UniProt P62136); assay: ESI mass spectrometry of covalent PP1:TTN adduct, time-course; type: binding; conditions: ESI-MS time-course analysis
[4] = tested on: SHP2; conditions: tyrosine phosphatase; cited from earlier work
[5] = molecular target: PP6 (Homo sapiens, UniProt O00743); assay: DiFMUP dephosphorylation assay, PP6; type: biochemical
[6] = tested on: PTPα; assay: Tyrosine phosphatase inhibition, PTPα; type: biochemical; conditions: IC50 PTPα / IC50 PP1
[7] = tested on: CDC14A; conditions: tyrosine phosphatase; cited from earlier work
[8] = tested on: PTP1B; assay: Tyrosine phosphatase inhibition, PTP1B; type: biochemical; conditions: IC50 PTP1B / IC50 PP1
[9] = molecular target: PP2B (Homo sapiens, UniProt Q08209); assay: DiFMUP dephosphorylation assay, PP2B; type: biochemical
[10] = tested on: Lyp; conditions: tyrosine phosphatase; cited from earlier work
[11] = tested on: CDC14A; assay: Tyrosine phosphatase inhibition, CDC14A; type: biochemical; conditions: IC50 CDC14A / IC50 PP1
[12] = tested on: CD45; conditions: tyrosine phosphatase; cited from earlier work
[13] = tested on: SHP1; assay: Tyrosine phosphatase inhibition, SHP1; type: biochemical; conditions: IC50 SHP1 / IC50 PP1
[14] = tested on: VHR; conditions: tyrosine phosphatase; cited from earlier work
[15] = tested on: Lyp; assay: Tyrosine phosphatase inhibition, Lyp; type: biochemical; conditions: IC50 Lyp / IC50 PP1
[16] = tested on: VHR; assay: Tyrosine phosphatase inhibition, VHR; type: biochemical; conditions: IC50 VHR / IC50 PP1
[17] = tested on: PTP1B; conditions: tyrosine phosphatase; cited from earlier work
[18] = molecular target: T1, PP2A (Homo sapiens, UniProt P67775); assay: [32P]-phosphohistone dephosphorylation assay, PP2A; type: biochemical
[19] = molecular target: PP5 (Homo sapiens, UniProt P53041); assay: [32P]-phosphohistone dephosphorylation assay, PP5; type: biochemical
[20] = tested on: SHP1; conditions: tyrosine phosphatase; cited from earlier work
[21] = tested on: SHP2; assay: Tyrosine phosphatase inhibition, SHP2; type: biochemical; conditions: IC50 SHP2 / IC50 PP1
[22] = molecular target: T2, PP1 (Homo sapiens, UniProt P62136); assay: Lineweaver-Burk kinetic analysis, PP1; type: biochemical; conditions: WT PP1; indicative of irreversible enzyme inhibition; Figure S6
[23] = molecular target: PP4 (Homo sapiens, UniProt P60510); assay: DiFMUP dephosphorylation assay, PP4; type: biochemical
[24] = tested on: HePTP; conditions: tyrosine phosphatase; cited from earlier work
[25] = tested on: CD45; assay: Tyrosine phosphatase inhibition, CD45; type: biochemical; conditions: IC50 CD45 / IC50 PP1
[26] = molecular target: T2, PP1; assay: [32P]-phosphohistone dephosphorylation assay, PP1; type: biochemical
[27] = tested on: PTPα; conditions: tyrosine phosphatase; cited from earlier work
[28] = tested on: PPP family members; assay: In vitro dephosphorylation assays across PPP family members; type: biochemical
[29] = tested on: HePTP; assay: Tyrosine phosphatase inhibition, HePTP; type: biochemical; conditions: IC50 HePTP / IC50 PP1
[30] = molecular target: T1, PP2A; conditions: cited from earlier work

Chain of PP1 Cys127Ser mutant (C127SPP1) (P62136 whole entry C127S): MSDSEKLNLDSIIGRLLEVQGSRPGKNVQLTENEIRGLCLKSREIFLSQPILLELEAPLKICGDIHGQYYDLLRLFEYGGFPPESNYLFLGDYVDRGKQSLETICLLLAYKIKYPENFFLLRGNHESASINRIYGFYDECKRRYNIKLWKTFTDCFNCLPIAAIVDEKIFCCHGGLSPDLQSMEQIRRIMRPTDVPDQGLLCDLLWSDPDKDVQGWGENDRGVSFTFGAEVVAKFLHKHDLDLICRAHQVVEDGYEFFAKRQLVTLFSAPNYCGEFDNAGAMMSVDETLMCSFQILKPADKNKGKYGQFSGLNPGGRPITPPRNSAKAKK
T1 sequence (P67775 whole entry): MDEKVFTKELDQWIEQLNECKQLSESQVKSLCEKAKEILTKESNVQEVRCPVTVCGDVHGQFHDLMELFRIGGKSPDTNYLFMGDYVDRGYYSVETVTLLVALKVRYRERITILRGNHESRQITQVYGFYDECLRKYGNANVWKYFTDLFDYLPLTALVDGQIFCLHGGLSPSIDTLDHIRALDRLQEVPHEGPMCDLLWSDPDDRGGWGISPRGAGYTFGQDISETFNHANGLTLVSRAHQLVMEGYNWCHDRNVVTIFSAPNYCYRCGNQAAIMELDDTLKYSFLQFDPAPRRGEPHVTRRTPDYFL
Chain of PP2B (P63098 2-170, other chains not shown): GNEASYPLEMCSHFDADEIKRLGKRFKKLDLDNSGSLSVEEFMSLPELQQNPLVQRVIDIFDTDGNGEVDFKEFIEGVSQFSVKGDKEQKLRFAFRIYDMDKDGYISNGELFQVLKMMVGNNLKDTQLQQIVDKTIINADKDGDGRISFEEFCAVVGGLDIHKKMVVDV
T2 sequence (P62136 whole entry): as the sequence (P62136 whole entry C127S) above, with S127C counted along it
Chain of PP6 (O00743 whole entry): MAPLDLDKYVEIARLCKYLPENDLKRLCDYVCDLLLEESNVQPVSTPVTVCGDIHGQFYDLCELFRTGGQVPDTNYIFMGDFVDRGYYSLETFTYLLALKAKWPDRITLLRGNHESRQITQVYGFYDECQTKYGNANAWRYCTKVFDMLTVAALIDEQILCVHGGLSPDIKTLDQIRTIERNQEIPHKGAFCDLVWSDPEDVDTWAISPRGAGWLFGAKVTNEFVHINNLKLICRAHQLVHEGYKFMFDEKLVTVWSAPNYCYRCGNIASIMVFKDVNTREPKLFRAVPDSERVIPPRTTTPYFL
Chain of PP5 (P53041 whole entry): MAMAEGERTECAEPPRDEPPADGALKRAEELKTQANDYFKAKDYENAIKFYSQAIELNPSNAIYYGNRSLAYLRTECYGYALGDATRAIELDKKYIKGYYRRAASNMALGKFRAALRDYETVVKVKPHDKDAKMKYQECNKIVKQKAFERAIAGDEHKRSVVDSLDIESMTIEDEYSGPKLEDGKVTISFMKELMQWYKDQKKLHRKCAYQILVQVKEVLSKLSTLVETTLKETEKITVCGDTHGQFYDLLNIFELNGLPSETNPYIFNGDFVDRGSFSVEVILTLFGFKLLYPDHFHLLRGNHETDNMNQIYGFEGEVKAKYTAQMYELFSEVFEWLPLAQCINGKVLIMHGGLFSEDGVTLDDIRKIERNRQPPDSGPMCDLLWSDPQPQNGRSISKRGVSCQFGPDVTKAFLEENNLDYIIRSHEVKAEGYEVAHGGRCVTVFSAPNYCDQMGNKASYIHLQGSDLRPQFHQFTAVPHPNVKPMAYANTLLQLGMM
Chain of PP4 (P60510 whole entry): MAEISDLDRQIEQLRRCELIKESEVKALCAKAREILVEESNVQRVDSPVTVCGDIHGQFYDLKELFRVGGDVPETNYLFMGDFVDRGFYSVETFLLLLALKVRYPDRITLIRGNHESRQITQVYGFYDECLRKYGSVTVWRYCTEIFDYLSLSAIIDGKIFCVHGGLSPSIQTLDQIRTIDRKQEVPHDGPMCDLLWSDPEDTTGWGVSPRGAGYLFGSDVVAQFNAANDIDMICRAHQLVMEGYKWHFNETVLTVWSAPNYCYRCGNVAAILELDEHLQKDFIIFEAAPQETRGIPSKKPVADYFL
Chain of PP1 (Cys127) (P62136 7-300): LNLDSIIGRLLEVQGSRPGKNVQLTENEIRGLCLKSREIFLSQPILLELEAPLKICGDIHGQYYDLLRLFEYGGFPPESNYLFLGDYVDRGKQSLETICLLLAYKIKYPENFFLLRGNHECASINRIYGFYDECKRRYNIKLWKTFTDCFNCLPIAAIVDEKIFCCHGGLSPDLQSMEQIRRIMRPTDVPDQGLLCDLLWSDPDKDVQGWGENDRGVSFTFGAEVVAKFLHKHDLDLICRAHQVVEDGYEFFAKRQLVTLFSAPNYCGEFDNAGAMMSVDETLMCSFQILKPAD

C=C1C(=O)N[C@H](C)C(=O)N[C@@H](CC(C)C)C(=O)N[C@@H](C(=O)O)[C@H](C)C(=O)N[C@@H](CCCNC(=N)N)C(=O)N[C@@H](/C=C/C(C)=C/[C@H](C)[C@H](Cc2ccccc2)OC)[C@H](C)C(=O)N[C@@H](C(=O)O)CCC(=O)N1C [Microcystin-LR] (R[Adda][d(γGlu)][NMeDha][dA]L[dAsp(3S-Me)]-OH; lactam N-7)
Change of IC50 for C127SPP1 compared to WT PP1 [1]: no difference

CO[C@H]([C@H](O)CC(=O)[C@@H](C)[C@@H](O)CC[C@@H](C)[C@@H]1O[C@]2(CC[C@@H](C)[C@H](CC[C@H](C)C(C)=O)O2)CC[C@@H]1C)[C@H](OC(=O)C[C@@H](O)C1=C(C)C(=O)OC1=O)C(C)C [TTM, tautomycin]
Inhibition of PP1, PP2A, PP4 and PP5 compared [2]: to a similar extent

C=C/C(=C/C(=O)C[C@H](C)C[C@@H](C)CC[C@H](O)[C@H](C)C(=O)C[C@@H](O)[C@H](C)[C@@H](C)OC(=O)C[C@@H](O)C1=C(C)C(=O)OC1=O)CC [TTN, Tautomycetin]
Time of covalent adduct formation with PP1 [3]: less than 10 min
IC50 [4]: 2.9 ± 0.2 µM
IC50 [5]: 0.101 ± 0.007 µM
Fold change (relative to PP1) ([5]; IC50 PP6 / IC50 PP1): 2657 fold
Fold change (relative to PP1) [6]: >10^5 fold
IC50 [7]: > 50 µM
Fold change (relative to PP1) [8]: >10^5 fold
IC50 [9]: 17.5 ± 3.2 µM
Fold change (relative to PP1) ([9]; IC50 PP2B / IC50 PP1): >10^5 fold
IC50 [10]: 20 ± 2 µM
Change of IC50 for C127SPP1 compared to WT PP1 [1]: ~10 fold
Mode of inhibition (Lineweaver-Burk kinetic analysis) ([1]; C127SPP1, Figure S6): competitive inhibition
Fold change (relative to PP1) [11]: >10^5 fold
IC50 [12]: > 50 µM
Fold change (relative to PP1) [13]: >10^5 fold
IC50 [14]: > 50 µM
Fold change (relative to PP1) [15]: >10^5 fold
Fold change (relative to PP1) [16]: >10^5 fold
IC50 [17]: 41.2 ± 4.4 µM
IC50 [18]: 0.0053 ± 0.00026 µM
Fold change (relative to PP1) ([18]; IC50 PP2A / IC50 PP1, [32P]-phosphohistone): 139 ^b fold
IC50 [19]: 0.0119 ± 5e-05 µM
Fold change (relative to PP1) ([19]; IC50 PP5 / IC50 PP1, [32P]-phosphohistone): 313 ^b fold
IC50 [20]: 14.6 ± 0.1 µM
Fold change (relative to PP1) [21]: >10^4 fold
Mode of inhibition (Lineweaver-Burk kinetic analysis) [22]: noncompetitive inhibition
IC50 [23]: 0.0444 ± 0.0042 µM
Fold change (relative to PP1) ([23]; IC50 PP4 / IC50 PP1): 1168 fold
IC50 [24]: > 50 µM
Fold change (relative to PP1) [25]: >10^5 fold
IC50 [26]: 38 ± 9 pM
IC50 [27]: > 50 µM
Selectivity (potency) for PP1 versus any other PPP tested [28]: > 100 fold and 100 fold
Fold higher IC50 than for PP1, the other PPPs tested ([28]; PPPs other than PP2A and PP5): > 10^3 fold
Fold change (relative to PP1) [29]: >10^5 fold

C[C@@](O)(/C=C/[C@H]1CC=CC(=O)O1)[C@@H](C[C@@H](O)\C=C/C=C\C=C\CO)OP(=O)(O)O [fostriecin]
Inhibition of PP2A compared with PP4 [30]: nearly the same extent
